Literature values in patent publication US6689905B2, “Stereoisomers of 3-aminotricyclo[2.2.1.0(2.6)]heptane-1,3-dicarboxylic acid” (Wyeth, priority 2001, dated 2004).

Target: type 2 mGlu receptors (Homo sapiens, UniProt Q14416)
Settings: literature description

type 2 mGlu receptors, sequence (Q14416 19-872): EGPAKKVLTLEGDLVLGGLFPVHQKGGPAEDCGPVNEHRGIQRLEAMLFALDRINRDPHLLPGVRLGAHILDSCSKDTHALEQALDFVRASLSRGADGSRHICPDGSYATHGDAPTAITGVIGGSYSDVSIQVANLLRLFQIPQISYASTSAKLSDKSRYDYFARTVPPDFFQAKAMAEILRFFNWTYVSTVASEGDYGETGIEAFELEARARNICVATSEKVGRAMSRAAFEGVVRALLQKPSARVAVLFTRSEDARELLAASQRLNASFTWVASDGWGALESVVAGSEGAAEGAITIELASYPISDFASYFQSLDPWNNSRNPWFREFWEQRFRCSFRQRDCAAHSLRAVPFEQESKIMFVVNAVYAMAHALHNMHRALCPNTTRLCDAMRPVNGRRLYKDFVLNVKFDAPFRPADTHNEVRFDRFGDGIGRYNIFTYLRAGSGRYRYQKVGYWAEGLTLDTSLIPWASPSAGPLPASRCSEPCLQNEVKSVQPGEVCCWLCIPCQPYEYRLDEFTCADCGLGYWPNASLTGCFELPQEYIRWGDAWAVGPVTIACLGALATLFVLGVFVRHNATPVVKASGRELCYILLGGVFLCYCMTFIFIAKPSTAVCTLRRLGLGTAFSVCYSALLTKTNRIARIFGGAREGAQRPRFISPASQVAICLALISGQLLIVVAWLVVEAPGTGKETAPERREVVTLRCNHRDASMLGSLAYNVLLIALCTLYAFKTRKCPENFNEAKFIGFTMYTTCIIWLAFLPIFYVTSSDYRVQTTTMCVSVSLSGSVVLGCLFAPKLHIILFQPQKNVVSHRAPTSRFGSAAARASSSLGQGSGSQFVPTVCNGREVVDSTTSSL

NC1(C(=O)O)CC2CCC1C2C(=O)O (stereo not drawn) [ABHD-I, 2-endo-aminobicyclo[2.2.1]heptane-2-exo-7-anti-dicarboxylic acid]
functional character at type 2 mGlu receptors: agonists
